Where two headings read alike, the source gives them in different places.
What was measured:
[1] = test system: DENV1 (Den1 BR/90) infection in Huh-7.5; assay: image-based dengue HT/HCA, 10-pt dose-response hit confirmation, DENV1; type: cell-based; conditions: Dengue virus, read-out: EC50 DENV1
Procedure: (§1) An immunofluorescence assay (IFA) used to detect dengue infection was optimized for the dengue HT/HCA. Briefly, cells were fixed with 4% (w/v) paraformaldehyde (PFA) for 20 min at room temperature (Rm T). PFA-fixed cells were treated with 0.25% (v/v) Triton-X for 20 min at Rm T. DENV-infected cells were detected by probing with 4G2 mAb prepared in blocking buffer: DPBS containing 5% FBS for 30 min at 37°C, followed by AlexaFluor-conjugated goat anti-mouse IgG (H+L) (Invitrogen Molecular Probes, USA) prepared in blocking buffer for 30 min at 37°C. Cell nuclei counterstained with 5 µg/mL 4′,6-diamidino-2-phenylindole (DAPI, Sigma-Aldrich, USA). Two washing cycles of DPBS was done after each step of the IFA. After the final washing, digital images were acquired using a high-throughput confocal fluorescence imaging system (Evotec Technologies High-Throughput Cell Analyzer Opera, Perkin Elmer, USA). The digital images were taken from 3 different fields of each well at 20× magnification.
(§2) Acquired images were analyzed using our in-house developed image-mining platform (IM). This platform is designed to do high-content screening and directly access the database of images that were sequentially analyzed with specially designed algorithms developed as a customized plug-in to the IM platform. The results of all the analyses were stored in a centralized database. […] One channel (DAPI-channel) captures the signal emitted by DAPI-stained nuclei at 450 nm, while the other channel (A488-channel) captures the signal emitted by the AlexaFluor 488 dye bound to the dengue E protein-antibody complexes confined in the cytoplasm of dengue-infected cells at 540 nm. To define the percentage of dengue-infected cells and, conversely the non-infected cells, a modified watershed method was applied. Compared to the original watershed algorithm that uses the morphological gradient image, a weighted gradient image is used for the topographic surface, whose weights are defined as the ridge values computed from the eigen values of the original image. The percentage of non-infected cells, which is also defined as the percent inhibition or percent activity, is derived by using the formula: [1−(A488-positive cells/total cells)]×100%.
(§3) The BioFocus kinase inhibitor library were screened against DENV1, DEN2, DENV3 and DENV4 at 10 µM in 0.5% (v/v) DMSO. MOCK-infected Huh-7.5 and IFN-α2A (500 U/mL) were used as positive controls, and the 0.5% DMSO vehicle was used as negative control. Four sets of 15 384-well plates (13 plates designated for test compounds and 2 plates designated for DMSO vehicle control) were used for the primary screening of the BioFocus kinase inhibitor library against each dengue serotype. Each of the 4,000 compounds in the library was tested in single wells. For data normalization and quality control of the screening, each test compound plate contained 16 replicates of the positive and negative controls. After dispensing the test compounds IFN-α2A and DMSO vehicle in the 384-well plates, Huh-7.5 was mixed with DENV1, DENV2, DENV3, or DENV4 to achieve a M.O.I. of 0.5 and dispensed at 5×10^3 cells/well using the Thermo Scientific WellMate automated liquid dispenser. For the MOCK-infected Huh-7.5, the cells were mixed with VM and dispensed under the same conditions as previously stated. Virus infection in the presence of the compounds proceeded at 37°C, 5% CO2 for 96 hrs. Compound activity based on percent inhibition and cell toxicity was assessed by IFA and IM analysis as described above. Scatter-plot distribution of the entire screening was generated using TIBCO Spotfire 4.5.0 (TIBCO Software Inc., Somerville, MA).
(§4) The calculated activity was normalized to a percent inhibition (PI) based on the MOCK-infected cells (100% activity, or zero infection) and dengue-infected cells (0% activity, or maximum measured infection percentage) controls according to the formula: [drawing 1] where: PImeasured - percent inhibition of test compound […]

[2] = test system: DENV2 (BR DEN2 01-01) infection in Huh-7.5; assay: image-based dengue HT/HCA, 10-pt dose-response hit confirmation, DENV2; type: cell-based; conditions: Dengue virus, read-out: EC50 DENV2
Procedure: as §1, §2, §3, §4

[3] = test system: DENV4 (DEN4 TVP-360) infection in Huh-7.5; assay: image-based dengue HT/HCA, 10-pt dose-response hit confirmation, DENV4; type: cell-based; conditions: Dengue virus, read-out: EC50 DENV4
Procedure: as §1, §2, §3, §4

[4] = compound toxicity, resazurin reduction assay in uninfected Huh-7.5; type: cell-based; conditions: human, uninfected Huh-7.5 cells, Huh-7.5 without viral infection, 10-pt DRC
Procedure: The hits identified from the primary screening were also tested at 10 µM against CHIKV-118-GFP infection in HuH-7 cells and evaluated by resazurin reduction assay (RRA). Resazurin (7-Hydroxy-3H-phenoxazin-3-one 10-oxide) is reduced to the red fluorescent resorufin by redox enzymes produced by viable cells, and is a good indication of metabolic capacity, and by extension cell viability. The amount of converted resorufin was measured as relative fluorescence readout (RFU) at excitation/emission of 531/572 nm using a fluorescence spectrophotometer (Victor^3 V Spectrophotometer, Perkin Elmer, USA). Briefly, cells were inoculated with CHIKV-118-GFP at an M.O.I. of 0.5 and seeded in 384-well plates containing reference and primary hit compounds and incubated under humidified conditions for 72 hrs at 37°C. Resazurin solution was added to a final concentration of 10 µM and further incubated for another 12 hrs prior to measurement of RFU. The percent activity of the compounds, reflected by the percent cell viability, was quantified by normalizing against the RFUs of MOCK-infected cells and CHIKV-118-GFP-infected cells. Compounds resulting in normalized RFU ≥70% were considered as positive hits for anti-CHIKV activity.
To confirm the compound activity against dengue viruses, the selected hits from the primary screening were tested in a 10-pt. DRC (2-fold serial dilution from 50 µM) using the same assay described for the dengue HT/HCA. Each concentration of the hit compounds was tested in duplicate wells. Data generated from image analysis of the 10-pt. DRC was plotted and analyzed using the non-linear regression formula: log (inhibitor) vs. response – […] (4 parameters) in GraphPad Prism 5.04. […] Compound toxicity was determined by testing the hit compounds in a 10-pt. DRC against Huh-7.5 in the absence of viral infection and measuring the cell viability using resazurin reduction assay as described above. […] Confirmed hits were selected based on their Selectivity Index (SI), a dimensionless value that indicates the magnitude between cytotoxic concentration and effective concentration, and is calculated as: SI = CC50/EC50.

[5] = test system: DENV3 (BR DEN3 290-02) infection in Huh-7.5; assay: image-based dengue HT/HCA, 10-pt dose-response hit confirmation, DENV3; type: cell-based; conditions: Dengue virus, read-out: EC50 DENV3
Procedure: as §1, §2, §3, §4

[6] = test system: BR DEN2 01-01 infection of Huh-7.5; assay: assay validation with reference compounds, 10-pt DRC of percent infection; type: cell-based, Dengue virus
Procedure: as §1, §2
(§5) In both validation experiments, Huh-7.5 was mixed with DENV1, DENV2, DENV3 or DENV4 at a M.O.I. of 0.5 or VM only for MOCK-infection and dispensed in designated wells using the Thermo Scientific WellMate automated liquid dispenser. For the first validation experiment, the statistical reliability of the dengue HT/HCA was determined by calculating the Z'-factor for the percent infection or percent inhibition. Briefly, the Z'-factor of a defined parameter is calculated using the formula: 1−[(3σp+3σn)/(|μp−μn|)], where the μp, μn, σp and σn are the means (μ) and standard deviations (σ) of the positive (p) and negative (n) controls. For the second validation experiment, the reference compounds were prepared in 2-fold serial dilutions and dispensed in duplicate wells in the 384-well plate, followed by the Huh-7.5 and DENV mixture (M.O.I. 0.5). Percent infection, percent inhibition, and percent cell number were determined using the customized IM platform plug-in. Scatter-plot distribution was generated using TIBCO Spotfire 4.5.0 (TIBCO Software Inc., Somerville, MA). The ten-point dose-response curves (10-pt DRCs) were plotted using the non-linear regression formula: log (inhibitor) vs. response – variable slope (4 parameters), available in GraphPad Prism 5.04 (GraphPad Software Inc., San Diego, CA). The top and bottom values of the reference compounds were unconstrained when the curve fittings of the 10-pt. DRCs were generated.

Huh-7.5 = assay: assay validation with reference compounds, percent cell number in DENV2-infected Huh-7.5; conditions: percent cell number normalized against MOCK-infected Huh-7.5, DENV2-infected cells
Procedure: Acquired images were analyzed using our in-house developed image-mining platform (IM). This platform is designed to do high-content screening and directly access the database of images that were sequentially analyzed with specially designed algorithms developed as a customized plug-in to the IM platform. The results of all the analyses were stored in a centralized database. […] To define the percentage of dengue-infected cells and, conversely the non-infected cells, a modified watershed method was applied. Compared to the original watershed algorithm that uses the morphological gradient image, a weighted gradient image is used for the topographic surface, whose weights are defined as the ridge values computed from the eigen values of the original image. The percentage of non-infected cells, which is also defined as the percent inhibition or percent activity, is derived by using the formula: [1−(A488-positive cells/total cells)]×100%.
as §5, with “The ten-point dose-response curves (10-pt DRCs) were plotted using the non-linear regression formula: log (inhibitor) vs. response – variable slope (4 parameters), available in GraphPad Prism 5.04 (GraphPad Software Inc., San Diego, CA).” left out
Similarly, the percent cell number was normalized based on the measured cell number in MOCK-infected (100% cell number) controls according to the formula: % cell number = (Cmeasured/μCMOCK-infect)×100%, where Cmeasured is the measured cell number in the test well and μCMOCK-infect is the average cell number in the MOCK-infected controls. The statistical validity of the dengue high-throughput screening was determined by calculating for the Z'-factor using the 0.5% DMSO-treatment and MOCK-infected Huh-7.5 as negative and positive controls, respectively. In addition, other parameters, including DRC of a reference compound, were used to evaluate the assay performance.

[7] = DENV1, Huh7.5, Huh-7.5, M.O.I. 0.5, 96 hrs
[8] = DENV2, Huh7.5, Huh-7.5, M.O.I. 0.5, 96 hrs
[9] = DENV4, Huh7.5, Huh-7.5, M.O.I. 0.5, 96 hrs
[10] = DENV3, Huh7.5, Huh-7.5, M.O.I. 0.5, 96 hrs
[11] = percent infection normalized against DENV2-infected Huh-7.5, M.O.I. 0.5, read-out: IC50

SMILES | EC50 [1, 7] [µM] | EC50 [2, 8] [µM] | EC50 [3, 9] [µM] | CC50 at 72 h [4] [µM] | EC50 [5, 10] [µM] | IC50 [6, 11] [µM] | CC50 (Huh-7.5) [µM] | other results
NC(Cc1ccc(Cl)cc1)c1csc(Nc2ccc(S(N)(=O)=O)cc2)n1 (stereo not shown) [CND0968] | > 25 | 6.4 | 1.1 | 29 | 6.2 | – | – | –
CS(=O)(=O)c1cnc(Nc2nc(C(N)Cc3ccc(Cl)cc3)cs2)nc1 (stereo not shown) [CND1244] | 1.7 | 2.9 | 4.4 | 21 | 1.6 | – | – | –
NC(Cc1ccc(C(F)(F)F)cc1)c1csc(Nc2ncccn2)n1 (stereo not shown) [CND1081] | 1.5 | 2.1 | 12 | > 100 | 3.1 | – | – | –
CN1c2cc3c(cc2N=C(c2ccc(C(=O)O)cc2)c2ccccc21)C(C)(C)CCC3(C)C [LE 135] | – | – | – | – | – | 11.7 | 23.9 | –
Cc1c(-c2ccc(O)cc2)nn(-c2ccc(O)cc2)c1-c1ccc(OCCN2CCCCC2)cc1 [MPP] | – | – | – | – | – | 6.85 | 5.86 | –
CCCc1cnc(Nc2nc(C(N)Cc3ccccc3)cs2)nc1 (stereo not shown) [CND0975] | 1 | 5.5 | > 50 | 44 | > 50 | – | – | –
CCN(CC)CC1CCN(c2ncc3ncnc(Nc4ccc(F)c(Cl)c4)c3n2)CC1 [BIBU 1361] | – | – | – | – | – | 4.34 | 4.5 | –
NC(Cc1ccc(C(F)(F)F)cc1)c1csc(Nc2nccc(NCCCO)n2)n1 (stereo not shown) [CND1172] | 7.3 | 10.4 | 7.5 | 15 | 4.8 | – | – | –
CCN(CC)CCCC(C)Nc1ccnc2cc(Cl)ccc12 (stereo not shown) [Chloroquine] | – | – | – | – | – | – | – | IC50 ([6]; Dengue virus, DENV2, Huh7.5): 17.4 µM
COc1ccc(CC(N)c2csc(Nc3nccc(NCc4ccco4)n3)n2)cc1 (stereo not shown) [CND1020] | 3.9 | – | – | 25 | – | – | – | EC50 ([2]; DENV2, Huh7.5, 96 h): 13 µM; EC50 ([3]; DENV4, Huh7.5, 96 h): 19 µM; EC50 ([5]; DENV3, Huh7.5, 96 h): 3.4 µM
NC(Cc1ccccc1)c1csc(Nc2ccccn2)n1 (stereo not shown) [CND1043] | – | 3.1 | 6.9 | 43 | 5.7 | – | – | EC50 ([1]; Huh7.5, 96 h): 4.1 µM
C=CCNC(=O)c1cc([N+](=O)[O-])cc2c(=O)[nH]c(Nc3ccc(Cl)c(Cl)c3)nc12 [AZ 10417808] | – | – | – | – | – | 82.3 | 148 | –
COc1cccc(Nc2nc(C(N)CC(C)C)cs2)n1 (stereo not shown) [CND1057] | 3.3 | 1 | 10 | 23 | 2.9 | – | – | –
